Measured values as given in patent publication EP4741395A1, “NOVEL COMPOUND SENSITIVE TO NITROGEN MONOXIDE AND PHARMACEUTICAL COMPOSITION COMPRISING SAME” (Omniamed Co. Ltd, priority 2023, dated 2025).

Columns and labels:
IFN-γ = IFN-γ reduction activity in Concanavalin A-treated splenocytes (quantitative ELISA); format: cell-based, C57BL/6 mouse; conditions: Mus musculus, Splenocyte, Concanavalin A 5 µg/mL, 72 hours, read-out: IFN-γ Reduction Activity (%) (Mean±SD)
Description: (§1) A spleen was isolated from an 8-week-old C57BL/6 mouse, and splenocytes were isolated using a physical method.
(§2) The separated splenocytes were diluted to a concentration of 5×10^6 cells/mL in a RPMI 1640 medium including 10% FBS, 100 U/mL of penicillin and 100 µg/mL of streptomycin, and the diluted splenocytes were dispensed at 500 µL/well into a 48-well plate and 100 µL/well into a 96-well plate, and cultured for 72 hours in an incubator. The splenocytes were treated with Concanavalin A (5 µg/mL) when dispensed to induce an immune response, and herein, […] of the pharmaceutical composition including the compound according to each of the Examples was also added thereto. After 72 hours, the supernatant was collected, and the level of remaining NO was checked through a Griess assay, and calculated by the following Equation 4.
NO is one of important inflammatory mediators, and may increase the level of inflammatory cytokine. Concanavalin A (5 µg/mL), which induces an immune response in splenocytes, and the compound of each of Examples were treated in a concentration-dependent manner to check whether the level of IFN-γ, a representative inflammatory cytokine, was reduced. The supernatant was collected 72 hours after the treatment, and analyzed using a quantitative enzyme-linked immunosorbent assay (Quantitative-ELISA).

Raw 264.7 cell line = test: NO scavenging activity in LPS-treated immune cells (Griess reagent); format: cell-based; conditions: Mus musculus, RAW264.7, Raw 264.7, LPS 500 ng/mL, 24 hours, read-out: NO Scavenging Activity (%) (Mean±SD)
Description: Raw 264.7 cell line was seeded in a 48-well plate at a density of 8×10^4 cells/well, and cultured at 37°C in a DMEM medium including 10% FBS, 100 U/mL of penicillin and 100 µg/mL of streptomycin.
The medium was cultured overnight, and then replaced with a fresh medium including 10 µM of the pharmaceutical composition sensitive to nitrogen monoxide including the compound of each of Examples 1 to 30 and 500 ng/mL of LPS, and the fresh medium was cultured again for another 24 hours.
Lastly, in order to measure the amount of NO produced, the amount of NO2^- present in the cell culture medium was measured using a Griess reagent (sulfanilamide, N-1-naphthylethylenediamine dihydrochloride). Specifically, 100 µL of a Griess reagent was mixed with a mixture solution of 50 µL of the cell culture medium and 50 µL of PBS. The mixture solution was reacted for 10 minutes in a well plate, and absorbance thereof at 540 nm was measured.

splenocytes [1] = test: Inhibitory activity on cell proliferation in splenocytes (CCK-8 analysis); format: cell-based, C57BL/6 mouse; conditions: Mus musculus, Splenocyte, Concanavalin A 5 µg/mL, 72 hours, read-out: Inhibitory Activity on Cell Proliferation (%) (Mean±SD)
splenocytes [2] = test: NO scavenging activity in Concanavalin A-treated splenocytes (Griess assay); format: cell-based, C57BL/6 mouse; conditions: Mus musculus, Splenocyte, Concanavalin A 5 µg/mL, 72 hours, read-out: NO Scavenging Activity (%) (Mean±SD)
Description: as §1, §2

[3] = DAF-2 assay of NO scavenging activity (NO donor SNAP); format: biochemical; conditions: DAF-2 10 µM, SNAP 100 µM, PBS, 3 hours, 37°C
Description: NO scavenging activity of the pharmaceutical composition sensitive to nitrogen monoxide including the compound according to each of Examples 1 to 22, 29 to 31, and 33 to 35 was evaluated through a DAF-2 assay.
Specifically, a reagent stock solution was made using DMSO (dimethyl sulfoxide) in order to prepare 5 mM of DAF-2, 100 mM of SNAP and 5 mM of the compound synthesized in each of the Examples, and for the reaction, the solution was added to a PBS (phosphate buffered saline) solution so that DAF-2, SNAP and the compound had final concentrations of 10 µM, 100 µM and the concentration of Table 1, respectively, followed by a reaction for 3 hours in a 37°C incubator.

JAK 1 = JAK 1 (Homo sapiens, UniProt P23458); test: JAK Human TK kinase enzymatic radiometric assay (Eurofins), JAK 1; conditions: value close to 100 indicates low JAK activity of the compound
Description: For the compounds of the Examples, JAK activity of each of the compounds was verified using the JAK Human TK Kinase Enzymatic Radiometric Kinase Profiler Assay service provided by Eurofins Scientific.
The activity was verified after inducing a reaction at the JAK 1, 2 and 3 active sites using radioactively labeled ATP.

[4] = DAF-2 assay of NO scavenging activity without and with H2O2 (ROS); format: biochemical; conditions: SNAP 100 µM, DAF-2 10 µM, 3 hours, 37°C; for NO Scavenging Activity (%) (Mean±SD) With H2O2: H2O2 1 mM
Description: The pharmaceutical composition sensitive to nitrogen monoxide including the compound according to each of Examples 23 to 28 and 32 may have scavenging activity for reactive oxygen species (ROS). NO scavenging activity of the pharmaceutical composition was evaluated through a DAF-2 assay.
Specifically, to a 100 µM solution of SNAP, the compound synthesized in each of the Examples was added at a concentration of the following Table 2, and reacted. Then 10 µM of DAF-2 was added thereto, followed by a reaction for 3 hours in a 37°C incubator.
Additionally, a stock solution of H2O2 (10 M) was added to the reaction solution so that SNAP and H2O2 had final concentrations of 100 µM and 1 mM, respectively. Then, the compound synthesized in each of the Examples was added thereto at a concentration of the following Table 11, followed by a reaction in the same manner, and NO scavenging activity was calculated by Equation 1.

Sequence of JAK 1 (P23458 whole entry): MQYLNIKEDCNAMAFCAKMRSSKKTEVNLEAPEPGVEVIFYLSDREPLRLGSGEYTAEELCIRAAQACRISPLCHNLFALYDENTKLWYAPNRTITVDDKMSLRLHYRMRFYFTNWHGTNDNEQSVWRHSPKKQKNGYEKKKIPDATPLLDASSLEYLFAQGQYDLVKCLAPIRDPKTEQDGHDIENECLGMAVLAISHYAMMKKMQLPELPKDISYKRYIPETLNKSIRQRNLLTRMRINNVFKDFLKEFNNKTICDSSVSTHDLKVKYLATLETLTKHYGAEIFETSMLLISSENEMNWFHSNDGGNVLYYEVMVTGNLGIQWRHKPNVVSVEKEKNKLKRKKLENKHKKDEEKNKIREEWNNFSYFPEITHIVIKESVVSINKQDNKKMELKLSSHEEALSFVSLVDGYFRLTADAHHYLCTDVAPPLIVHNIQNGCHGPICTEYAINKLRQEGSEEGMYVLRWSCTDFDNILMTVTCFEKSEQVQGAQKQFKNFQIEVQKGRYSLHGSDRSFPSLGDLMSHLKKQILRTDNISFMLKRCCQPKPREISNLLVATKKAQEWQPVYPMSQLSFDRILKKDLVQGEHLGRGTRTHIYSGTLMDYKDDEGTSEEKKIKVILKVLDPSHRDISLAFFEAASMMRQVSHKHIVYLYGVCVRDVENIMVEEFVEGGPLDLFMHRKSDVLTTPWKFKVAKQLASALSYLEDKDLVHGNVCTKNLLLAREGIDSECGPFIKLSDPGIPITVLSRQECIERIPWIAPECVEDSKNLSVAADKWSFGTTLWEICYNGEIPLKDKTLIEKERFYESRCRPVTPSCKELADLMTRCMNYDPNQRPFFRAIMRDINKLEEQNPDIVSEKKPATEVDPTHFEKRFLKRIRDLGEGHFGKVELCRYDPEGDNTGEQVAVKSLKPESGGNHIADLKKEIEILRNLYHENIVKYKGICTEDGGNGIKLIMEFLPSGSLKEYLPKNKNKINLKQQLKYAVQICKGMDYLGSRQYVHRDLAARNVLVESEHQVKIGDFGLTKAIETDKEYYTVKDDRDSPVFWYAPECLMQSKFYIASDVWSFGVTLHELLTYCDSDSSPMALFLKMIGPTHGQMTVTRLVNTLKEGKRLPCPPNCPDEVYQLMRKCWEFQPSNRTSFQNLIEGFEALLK

Compound | activity at 10 µM (IFN-γ) | activity at 10 µM (Raw 264.7 cell line) | inhibition at 10 µM (splenocytes [1]) | activity at 10 µM (splenocytes [2]) | NO Scavenging Activity (%) (Mean±SD) ([3]; compound 1 µM) | NO Scavenging Activity (%) (Mean±SD) ([3]; compound 5 µM) | NO Scavenging Activity (%) (Mean±SD) ([3]; compound 10 µM) | JAK 1 Activity (JAK 1; 0.1 nM) | JAK 1 Activity (JAK 1; 1 nM) | JAK 1 Activity (JAK 1; 10 nM) | JAK 1 Activity (JAK 1; 100 nM) | NO Scavenging Activity (%) (Mean±SD) Without H2O2 ([4]; compound 10 µM) | NO Scavenging Activity (%) (Mean±SD) With H2O2 ([4]; compound 10 µM) | NO Scavenging Activity (%) (Mean±SD) Without H2O2 ([4]; compound 1 µM) | NO Scavenging Activity (%) (Mean±SD) With H2O2 ([4]; compound 1 µM) | NO Scavenging Activity (%) (Mean±SD) Without H2O2 ([4]; compound 5 µM) | NO Scavenging Activity (%) (Mean±SD) With H2O2 ([4]; compound 5 µM)
Cc1ccc(N)c(NC(=O)n2ccc3c(N(C)[C@H]4CN(C(=O)CC#N)CC[C@H]4C)ncnc32)c1 [Example 2, N-(2-amino-5-methylphenyl)-4-(((3R,4R)-1-(2-cyanoacetyl)-4-methylpiperidin-3-yl)(methyl)amino)-7H-pyrrolo[2,3-d]pyrimidine-7-carboxamide] | 95.2 ± 0.39% | 78.1 ± 0.21% | 90.4 ± 4.69% | 94.3 ± 0.27% |  |  |  |  |  |  |  |  |  |  |  |  | 
C[C@@H]1CCN(C(=O)CC#N)C[C@@H]1N(C)c1ncnc2c1ccn2C(=O)N(C)CCN(C)C(=O)Nc1cc2c(cc1N)n(C)c(=O)n2C [Example 22, N-(2-(3-(6-amino-1,3-dimethyl-2-oxo-2,3-dihydro-1H-benzo[d]imidazol-5-yl)-1-methylureido)ethyl)-4-(((3R,4R)-1-(2-cyanoacetyl)-4-methylpiperidin-3-yl) (methyl)amino)-N-methyl-7H-pyrrolo[2,3-d]pyrimidine-7-carboxamide] |  | 31.3 ± 0.88% | 19.4 ± 0.21% | 45.9 ± 0.51% | 14.83 ±6.51% | 36.86 ±2.09% | 48.96 ±3.12% | 91 | 97 | 84 | 77 |  |  |  |  |  | 
C[C@@H]1CCN(C(=O)CC#N)C[C@@H]1N(C)c1ncnc2c1ccn2C(=O)Nc1cc(N(C)C)ccc1N [Example 5, N-(2-amino-5-(dimethylamino)phenyl)-4-(((3R,4R)-1-(2-cyanoacetyl)-4-methylpiperidin-3-yl)(methyl)amino)-7H-pyrrolo[2,3-d]pyrimidine-7-carboxamide] | 96.1 ± 0.45% | 84.1 ± 0.01% | 60.5 ± 5.48% | 94.1 ± 0.52% |  |  |  |  |  |  |  |  |  |  |  |  | 
C[C@@H]1CCN(C(=O)CC#N)C[C@@H]1N(C)c1ncnc2c1ccn2C(=O)Nc1ccccc1NC(=O)OCc1ccc(B2OC(C)(C)C(C)(C)O2)cc1 [Example 25, 4-(4,4,5,5-tetramethyl-1,3,2-dioxaborolan-2-yl)benzyl (2-(4-(((3R,4R)-1-(2-cyanoacetyl)-4-methylpiperidin-3-yl) (methyl)amino)-7H-pyrrolo[2,3-d]pyrimidine-7-carboxamido)phenyl) carbamate] | 98.7 ± 0.04% | 63.2 ± 0.56% | 81.4 ± 7.94% | 100% |  |  |  |  |  |  |  | 42.36 ±1.91% | 89.96 ±0.19% |  |  |  | 
C[C@@H]1CCN(C(=O)CC#N)C[C@@H]1N(C)c1ncnc2c1ccn2C(=O)Nc1cc2c(cc1NC(=O)OCc1ccc(B3OC(C)(C)C(C)(C)O3)cc1)n(C)c(=O)n2C [Example 28, 4-(4,4,5,5-tetramethyl-1,3,2-dioxaborolan-2-yl)benzyl (6-(4-(((3R,4R)-1-(2-cyanoacetyl)-4-methylpiperidin-3-yl) (methyl)amino)-7H-pyrrolo[2,3-d]pyrimidine-7-carboxamido)-1,3-dimethyl-2-oxo-2,3-dihydro-1H-benzo[d]imidazol-5-yl)carbamate] | 100% | 49.8 ± 0.43% | 80.7 ± 7.12% | 92 ± 0.56% |  |  |  |  |  |  |  | 14.18 ±0.62% | 98.34 ±0.05% | 3.73± 0.57% | 76.23 ±0.94% | 13.25 ±0.69% | 98.01 ±0.04%
Cc1ccc(N)c(NC(=O)N(C)CCN(C)C(=O)n2ccc3c(N(C)[C@H]4CN(C(=O)CC#N)CC[C@H]4C)ncnc32)c1 [Example 16, N-(2-(3-(2-amino-5-methylphenyl)-1-methylureido)ethyl)-4-(((3R,4R)-1-(2-cyanoacetyl)-4-methylpiperidin-3-yl) (methyl)amino)-N-methyl-7H-pyrrolo[2,3-d]pyrimidine-7-carboxamide] | 81.4 ± 0.5% | 49.3 ± 0.23% | 25 ± 5.67% | 27.1 ± 1.2% |  |  |  | 101 | 104 | 98 | 59 |  |  |  |  |  | 
Cc1ccc(NC(=O)n2ccc3c(N(C)[C@H]4CN(C(=O)CC#N)CC[C@H]4C)ncnc32)c(N)c1 [Example 3, N-(2-amino-4-methylphenyl)-4-(((3R,4R)-1-(2-cyanoacetyl)-4-methylpiperidin-3-yl)(methyl)amino)-7H-pyrrolo[2,3-d]pyrimidine-7-carboxamide] | 99.1 ± 0.61% | 95.4 ± 0.11% | 76.2 ± 2.45% | 98.1 ± 0.34% |  |  |  |  |  |  |  |  |  |  |  |  | 
C[C@@H]1CCN(C(=O)CC#N)C[C@@H]1N(C)c1ncnc2c1ccn2C(=O)Nc1cc2c(cc1N)n(C)c(=O)n2C [Example 10, N-(6-amino-1,3-dimethyl-2-oxo-2,3-dihydro-1H-benzo[d]imidazol-5-yl)-4-(((3R,4R)-1-(2-cyanoacetyl)-4-methylpiperidin-3-yl)(methyl)amino)-7H-pyrrolo[2,3-d]pyrimidine-7-carboxamide] | 93 ± 2.99% | 93.7 ± 0.11% | 76.3 ± 2.45% | 77 ± 0.87% |  |  |  |  |  |  |  |  |  |  |  |  | 
Cc1ccc(NC(=O)N(C)CCN(C)C(=O)n2ccc3c(N(C)[C@H]4CN(C(=O)CC#N)CC[C@H]4C)ncnc32)c(N)c1 [Example 15, N-(2-(3-(2-amino-4-methylphenyl)-1-methylureido)ethyl)-4-(((3R,4R)-1-(2-cyanoacetyl)-4-methylpiperidin-3-yl) (methyl)amino)-N-methyl-7H-pyrrolo[2,3-d]pyrimidine-7-carboxamide] | 86.5 ± 0.29% | 54 ± 0.59% | 22.6 ± 6.36% | 31.6 ± 0.16% |  |  |  | 102 | 90 | 99 | 66 |  |  |  |  |  | 
